Tests used:
[1] = chelating agent for ^68Ga; cited from earlier work
PSMA = PSMA (Homo sapiens, UniProt Q04609); assay: PSMA inhibition assay; type: biochemical; conditions: LNCaP cell lysates, 4 µM NAAG, Cheng-Prusoff conversion
Sequence of PSMA (Q04609 whole entry): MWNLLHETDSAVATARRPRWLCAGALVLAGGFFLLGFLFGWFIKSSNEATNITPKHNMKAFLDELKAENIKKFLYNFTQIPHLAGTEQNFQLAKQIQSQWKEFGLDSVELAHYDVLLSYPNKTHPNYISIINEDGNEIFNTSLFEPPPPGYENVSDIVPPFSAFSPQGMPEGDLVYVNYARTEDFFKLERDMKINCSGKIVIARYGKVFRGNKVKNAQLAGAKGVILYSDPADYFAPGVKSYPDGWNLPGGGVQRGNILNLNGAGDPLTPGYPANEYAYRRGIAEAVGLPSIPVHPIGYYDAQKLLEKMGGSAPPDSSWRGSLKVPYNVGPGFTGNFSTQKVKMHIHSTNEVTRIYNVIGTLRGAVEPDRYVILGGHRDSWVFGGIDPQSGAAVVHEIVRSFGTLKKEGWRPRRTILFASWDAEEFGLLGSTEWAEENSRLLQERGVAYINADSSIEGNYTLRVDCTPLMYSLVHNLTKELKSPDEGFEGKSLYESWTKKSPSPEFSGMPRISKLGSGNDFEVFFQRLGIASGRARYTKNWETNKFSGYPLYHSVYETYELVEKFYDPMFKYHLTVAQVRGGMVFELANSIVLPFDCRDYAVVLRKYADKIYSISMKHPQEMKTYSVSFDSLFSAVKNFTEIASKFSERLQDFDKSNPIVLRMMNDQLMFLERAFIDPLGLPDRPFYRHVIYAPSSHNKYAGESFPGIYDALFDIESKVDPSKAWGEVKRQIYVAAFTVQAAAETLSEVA

Row | Ki (PSMA) [nM] | SMILES | stability constant, KML [1]
1 |  | O=C(O)CN1CCN(CC(=O)O)CCN(CC(=O)O)CCN(CC(=O)O)CC1 [DOTA] | 21.3
2 |  | O=C(O)CN1CCN(CC(=O)O)CCN(CC(=O)O)CC1 [NOTA, 1,4,7-triazacyclononane-1,4,7-triacetic acid] | 31.1
3 | 0.03 | O=C(O)CCc1ccc(O)c(CN(CCN(CC(=O)O)Cc2cc(CCC(=O)NCCCCCC(=O)NCCCC[C@H](NC(=O)N[C@@H](CCC(=O)O)C(=O)O)C(=O)O)ccc2O)CC(=O)O)c1 [DKFZ-PSMA-11, Glu-urea-Lys-(Ahx)-HBED-CC] | 
